# Measurements as given in ChEMBL document CHEMBL1697692, “Developing structure-activity relationships for the prediction of hepatotoxicity” (Chem Res Toxicol, 2010).
# System: Hepatotoxicity
# Test: Literature-mined public compounds from Greene et al multi-species hepatotoxicity modelling dataset
row,Compound,Hepatotoxicity
1,CN[C@@H]1[C@H](O[C@H]2[C@H](O[C@H]3[C@H](O)[C@@H](O)[C@H](N=C(N)N)[C@@H](O)[C@@H]3N=C(N)N)O[C@@H](C)[C@]2(O)C=O)O[C@@H](CO)[C@H](O)[C@H]1O.CN[C@@H]1[C@H](O[C@H]2[C@H](O[C@H]3[C@H](O)[C@@H](O)[C@H](N=C(N)N)[C@@H](O)[C@@H]3N=C(N)N)O[C@@H](C)[C@]2(O)C=O)O[C@@H](CO)[C@H](O)[C@H]1O.O=S(=O)(O)O.O=S(=O)(O)O.O=S(=O)(O)O [STREPTOMYCIN SULFATE],NE: No evidence of hepatotoxicity in any species
2,[H]/N=C(/N)N[C@H]1[C@H](O)[C@@H](O)[C@H](O[C@@H]2O[C@@H](C)[C@](O)(C=O)[C@H]2O[C@@H]2O[C@@H](CO)[C@H](O)[C@@H](O)[C@@H]2NC)[C@@H](N/C(N)=N\[H])[C@@H]1O [STREPTOMYCIN],NE: No evidence of hepatotoxicity in any species
3,CN(N=O)C(=O)N[C@@H](C=O)[C@@H](O)[C@H](O)[C@H](O)CO [STREPTOZOCIN],NE: No evidence of hepatotoxicity in any species
4,Clc1ccc(CSC(Cn2ccnc2)c2ccc(Cl)cc2Cl)cc1.O=[N+]([O-])O (centres undefined) [SULCONAZOLE NITRATE],NE: No evidence of hepatotoxicity in any species
5,Nc1ccc(S(=O)(=O)NC(=O)c2ccccc2)cc1 [SULFABENZAMIDE],NE: No evidence of hepatotoxicity in any species
6,Cc1nnc(NS(=O)(=O)c2ccc(N)cc2)s1 [SULFAMETHIZOLE],HH: Evidence of human hepatotoxicity
7,Nc1ccc(S(N)(=O)=O)cc1 [SULFANILAMIDE],HH: Evidence of human hepatotoxicity
8,O=C(O)c1cc(/N=N/c2ccc(S(=O)(=O)Nc3ccccn3)cc2)ccc1O [SULFASALAZINE],HH: Evidence of human hepatotoxicity
9,O=C1C(CC[S+]([O-])c2ccccc2)C(=O)N(c2ccccc2)N1c1ccccc1 (centres undefined) [SULFINPYRAZONE],HH: Evidence of human hepatotoxicity
10,Nc1c2c(nc3ccccc13)CCCC2 [TACRINE],AH: Evidence for animal hepatotoxicity but not tested in humans
11,Cc1nc(C)c2c(n1)N(Cc1ccc(-c3ccccc3-c3nnn[nH]3)cc1)C(=O)CC2 [TASOSARTAN],HH: Evidence of human hepatotoxicity
12,C[C@H](CCC(=O)NCCS(=O)(=O)O)[C@H]1CC[C@H]2[C@@H]3[C@@H](O)C[C@@H]4C[C@H](O)CC[C@]4(C)[C@H]3CC[C@]12C [TAURURSODIOL],HH: Evidence of human hepatotoxicity
13,CC[C@H]1OC(=O)[C@H](C)C(=O)[C@H](C)[C@@H](O[C@@H]2O[C@H](C)C[C@H](N(C)C)[C@H]2O)[C@](C)(OC)C[C@@H](C)C(=O)[C@H](C)[C@H]2N(CCCCn3cnc(-c4cccnc4)c3)C(=O)O[C@]12C [TELITHROMYCIN],HH: Evidence of human hepatotoxicity
14,CC1CN(c2cc3c(cc2F)c(=O)c(C(=O)O)cn3-c2ccc(F)cc2F)CCN1 (centres undefined) [TEMAFLOXACIN],HH: Evidence of human hepatotoxicity
15,CC(C)(C)c1ccc(C(O)CCCN2CCC(C(O)(c3ccccc3)c3ccccc3)CC2)cc1 (centres undefined) [TERFENADINE],NE: No evidence of hepatotoxicity in any species
16,CCCCNc1ccc(C(=O)OCCN(C)C)cc1.Cl [TETRACAINE HYDROCHLORIDE],NE: No evidence of hepatotoxicity in any species
17,CN(C)[C@@H]1C(O)=C(C(N)=O)C(=O)[C@@]2(O)C(O)=C3C(=O)c4c(O)cccc4[C@@](C)(O)[C@H]3C[C@@H]12 [TETRACYCLINE],HH: Evidence of human hepatotoxicity
18,Cn1c(=O)c2[nH]cnc2n(C)c1=O.O [THEOPHYLLINE],NE: No evidence of hepatotoxicity in any species
19,Cc1ncc(C[n+]2csc(CCO)c2C)c(N)n1 [THIAMINE ION],NE: No evidence of hepatotoxicity in any species
20,CC(=N)S [THIOACETAMIDE],AH: Evidence for animal hepatotoxicity but not tested in humans

row,Compound,Hepatotoxicity
1,CN1c2ccccc2C(NCCCCCCC(=O)O)c2ccc(Cl)cc2S1(=O)=O (centres undefined) [TIANEPTINE],HH: Evidence of human hepatotoxicity
2,Clc1ccccc1CN1CCc2sccc2C1 [TICLOPIDINE],HH: Evidence of human hepatotoxicity
3,CC(C)(C)NC[C@H](O)COc1nsnc1N1CCOCC1.O=C(O)/C=C\C(=O)O [TIMOLOL MALEATE],HH: Evidence of human hepatotoxicity
4,NC[C@H]1O[C@H](O[C@H]2[C@H](O)[C@@H](O[C@H]3O[C@H](CO)[C@@H](O)[C@H](N)[C@H]3O)[C@H](N)C[C@@H]2N)[C@H](N)C[C@@H]1O [TOBRAMYCIN],HH: Evidence of human hepatotoxicity
5,Cc1ccc(S(=O)(=O)NC(=O)NN2CCCCCC2)cc1 [TOLAZAMIDE],HH: Evidence of human hepatotoxicity
6,Cc1ccc(C(=O)c2cc(O)c(O)c([N+](=O)[O-])c2)cc1 [TOLCAPONE],HH: Evidence of human hepatotoxicity
7,Cc1ccc(C(=O)c2ccc(CC(=O)O)n2C)cc1 [TOLMETIN],HH: Evidence of human hepatotoxicity
8,Cl.N[C@@H]1C[C@H]1c1ccccc1 [TRANYLCYPROMINE HYDROCHLORIDE],NE: No evidence of hepatotoxicity in any species
9,Cl.O=c1n(CCCN2CCN(c3cccc(Cl)c3)CC2)nc2ccccn12 [TRAZODONE HYDROCHLORIDE],HH: Evidence of human hepatotoxicity
10,CC1=C(/C=C/C(C)=C/C=C/C(C)=C/C(=O)O)C(C)(C)CCC1 [TRETINOIN],HH: Evidence of human hepatotoxicity
11,ClC=C(Cl)Cl [TRICHLOROETHYLENE],AH: Evidence for animal hepatotoxicity but not tested in humans
12,CN1CCN(CCCN2c3ccccc3Sc3ccc(C(F)(F)F)cc32)CC1 [TRIFLUOPERAZINE],HH: Evidence of human hepatotoxicity
13,CN1C(=O)OC(C)(C)C1=O [TRIMETHADIONE],HH: Evidence of human hepatotoxicity
14,COc1cc(C(=O)NCc2ccc(OCCN(C)C)cc2)cc(OC)c1OC.Cl [TRIMETHOBENZAMIDE HYDROCHLORIDE],HH: Evidence of human hepatotoxicity
15,COc1cc(Cc2cnc(N)nc2N)cc(OC)c1OC [TRIMETHOPRIM],HH: Evidence of human hepatotoxicity
16,CN(C)CCN(Cc1ccccc1)c1ccccn1.Cl [TRIPELENNAMINE HYDROCHLORIDE],HH: Evidence of human hepatotoxicity
17,Cc1c(C)c2c(c(C)c1O)CCC(C)(COc1ccc(CC3SC(=O)NC3=O)cc1)O2 (centres undefined) [TROGLITAZONE],HH: Evidence of human hepatotoxicity
18,CO[C@H]1C[C@H](O[C@H]2[C@H](C)[C@@H](O[C@@H]3O[C@H](C)C[C@H](N(C)C)[C@H]3OC(C)=O)[C@@H](C)C[C@@]3(CO3)C(=O)[C@H](C)[C@@H](OC(C)=O)[C@@H](C)[C@@H](C)OC(=O)[C@@H]2C)O[C@@H](C)[C@@H]1OC(C)=O [TROLEANDOMYCIN],HH: Evidence of human hepatotoxicity
19,NC(CO)(CO)CO [TROMETHAMINE],NE: No evidence of hepatotoxicity in any species
20,N[C@@H]1[C@H]2CN(c3nc4c(cc3F)c(=O)c(C(=O)O)cn4-c3ccc(F)cc3F)C[C@@H]12 [TROVAFLOXACIN],HH: Evidence of human hepatotoxicity

row,Compound,Hepatotoxicity
1,Oc1ncc(N(CCCl)CCCl)c(O)n1 [URACIL MUSTARD],HH: Evidence of human hepatotoxicity
2,CN[C@H](CC(C)C)C(=O)N[C@H]1C(=O)N[C@@H](CC(N)=O)C(=O)N[C@H]2C(=O)N[C@H]3C(=O)N[C@H](C(=O)N[C@H](C(=O)O)c4cc(O)cc(O)c4-c4cc3ccc4O)[C@H](O)c3ccc(c(Cl)c3)Oc3cc2cc(c3O[C@@H]2O[C@H](CO)[C@@H](O)[C@H](O)[C@H]2O[C@H]2C[C@](C)(N)[C@H](O)[C@H](C)O2)Oc2ccc(cc2Cl)[C@H]1O [VANCOMYCIN],HH: Evidence of human hepatotoxicity
3,Nc1ncnc2c1ncn2[C@@H]1O[C@H](CO)[C@@H](O)[C@@H]1O [VIDARABINE],NE: No evidence of hepatotoxicity in any species
4,CC[C@]1(O)C[C@@H]2CN(CCc3c([nH]c4ccccc34)[C@@](C(=O)OC)(c3cc4c(cc3OC)N(C)[C@H]3[C@@](O)(C(=O)OC)[C@H](OC(C)=O)[C@]5(CC)C=CCN6CC[C@]43[C@@H]65)C2)C1.O=S(=O)(O)O [VINBLASTINE SULFATE],NE: No evidence of hepatotoxicity in any species
5,CC[C@]1(O)C[C@H]2CN(CCc3c([nH]c4ccccc34)[C@@](C(=O)OC)(c3cc4c(cc3OC)N(C=O)[C@H]3[C@@](O)(C(=O)OC)[C@H](OC(C)=O)[C@]5(CC)C=CCN6CC[C@]43[C@@H]65)C2)C1.O=S(=O)(O)O [VINCRISTINE SULFATE],HH: Evidence of human hepatotoxicity
6,CCCCCCCCCCCCCCCC(=O)OC/C=C(C)/C=C/C=C(C)/C=C/C1=C(C)CCCC1(C)C [VITAMIN A PALMITATE],AH: Evidence for animal hepatotoxicity but not tested in humans
7,CC(=O)CC(c1ccccc1)c1c(O)c2ccccc2oc1=O (centres undefined) [WARFARIN],WE: Weak evidence (<10 case reports) of human hepatotoxicity
8,COc1cc(C(=O)NS(=O)(=O)c2ccccc2C)ccc1Cc1cn(C)c2ccc(NC(=O)OC3CCCC3)cc12 [ZAFIRLUKAST],HH: Evidence of human hepatotoxicity
9,Nc1ccn([C@H]2CC[C@@H](CO)O2)c(=O)n1 [ZALCITABINE],NE: No evidence of hepatotoxicity in any species
10,Cc1cn([C@H]2C[C@H](N=[N+]=[N-])[C@@H](CO)O2)c(=O)[nH]c1=O [ZIDOVUDINE],HH: Evidence of human hepatotoxicity
11,CC(c1cc2ccccc2s1)N(O)C(N)=O (centres undefined) [ZILEUTON],HH: Evidence of human hepatotoxicity
12,Cc1ccc(-c2nc3ccc(C)cn3c2CC(=O)N(C)C)cc1 [ZOLPIDEM],WE: Weak evidence (<10 case reports) of human hepatotoxicity
13,Cc1cc(CC(=O)O)n(C)c1C(=O)c1ccc(Cl)cc1 [ZOMEPIRAC],NE: No evidence of hepatotoxicity in any species
14,AURANOFIN,HH: Evidence of human hepatotoxicity
15,AUROTHIOGLUCOSE,HH: Evidence of human hepatotoxicity
16,BISMUTH SUBSALICYLATE,NE: No evidence of hepatotoxicity in any species
17,CADMIUM DICHLORIDE,AH: Evidence for animal hepatotoxicity but not tested in humans
18,CARBOPLATIN,HH: Evidence of human hepatotoxicity
19,CISPLATIN,HH: Evidence of human hepatotoxicity
